Patent US10012655B2, “Method for quantitating total HMGB1 protein in biological samples” (INSTITUT PASTEUR, priority 2008, dated 2018)

Experiments:
iDCs [1] = test: aNK-dependent maturation of iDCs in 24 h aNK-iDC coculture (CD86/HLA-DR flow cytometry); type: cell-based, human; settings: uninfected iDCs, inhibitor 10 μg/ml added at initiation
Description: FIG. 3 (a)-(e). aNK-dependent maturation of HIV-1-infected iDCs is mediated by HMGB1 and involves RAGE. (a) Left panel: iDCs were cultured for 24 h either alone or with aNK cells, in the presence of blocking anti-HMGB1 antibodies (10 μg/ml) or glycyrrhizin (10 μg/ml). The maturation status of DCs was determined by flow cytometry with CD86 and HLA-DR—specific antibodies. Right panel: same experiment, but performed with HIV-1 infected iDCs. Data represent mean±sd of at least three independent experiments, and statistical comparisons were made with the non parametric Mann-Whitney test. * p<0.05. (b) iDC (10^6 cells/ml) were cultured for 48 h with increasing concentrations (1-10 μg/ml) of rh-HMGB1. Cells were then stained with anti-CD86, -HLA-DR, -CD80, -CD83, DC-LAMP and -CD40 antibodies and analyzed by flow cytometry. (c) Influence of rh-HMGB1 on cytokine and chemokine production (determined by MAP) by DCs. iDCs (10^6 cells/ml) were incubated for 48 h in medium or in presence of rh-HMGB1 (1 or 10 μg/ml). As a positive control, iDCs were stimulated with LPS (DC0). […] (e) iDC, DC0, uninfected or HIV-1-infected iDC cocultured for 24 h with aNK cells, were incubated with rh-HMGB1 (1 μg/ml) and subsequently stained with anti-RAGE antibodies and analyzed by flow cytometry. […]

R5-HIV-1Ba-L = test: HIV-1 replication in infected iDCs, p24 ELISA in culture supernatant; type: cell-based; settings: inhibitor 10 μg/ml, 3 days
Description: FIGS. 6 (a), (b) and (c). Exogenous rh-HMGB1 triggers HIV-1 and HIV-2 replication in iDC. (a) HIV-1-infected iDC were cultured alone or in the presence of aNK cells for 3 days. Rh-HMGB1 (1 μg/ml) was added in some cultures. HIV replication was measured by p24 quantification in culture supernatant (b) HIV1-infected iDC were cultured alone or in the presence of aNK cells for 3 days. Blocking anti-HMGB1 antibodies (10 μg/ml) or glycyrrhizin (10 μg/ml) were added at culture initiation. HIV replication was measured by p24 quantification in culture supernatant. The mean±sd of three independent experiments is shown. Statistical comparisons were made with the non parametric Mann-Whitney test. * p<0.05; (c) HIV-2-infected iDC were cultured alone or in the presence of aNK cells for 3 days. Rh-HMGB1 (1 μg/ml) was added in some cultures. HIV replication was measured by p24 quantification in culture supernatant.
Virus stock preparation was prepared by amplification of R5-HIV-1Ba-L on MDM from healthy donors. Viral stock was then clarified by centrifugation prior to determination of HIV1 p24 concentration. iDCs were plated in 96-well culture plates at 200,000 cells/well and incubated for 3 hours at 37° C. in a 5% CO2 atmosphere with R5-HIV-1BAL at various concentrations (0.001 to 10 ng p24/ml). Cells were harvested, washed four times with media containing 10% FCS and, when indicated, rNK or aNK cells were added at a NK:DC ratio of 1:5, unless otherwise indicated. NK-DC cocultures lasted 24 h before analysis of the maturation stage of DCs and/or quantification of viral production. In some experiments (FIG. 6), HIV-1 infected iDCs were incubated alone or with aNK cells for 3 days, in the presence of rh-HMGB1 (1 μg/ml) (R&DSystems), and in some cultures in the presence of rabbit antiHMGB1 Abs (10 μg/ml) (Abcam, Cambridge, UK) or Glycyrrhizin (10 μg/ml).
The concentration of HIV-1 in the supernatant of infected cell cultures was determined by measuring the amount of p24 protein by ELISA (Ingen, Belgium). DNA from cells was extracted using the GIAamp DNA Blood Mini Kit (Qiagen, Basel, Switzerland) and quantified HIV-1 proviral load by RT-PCR as described previously54. The frequency of HIV-1-infected cells was determined by flow cytometry to detect intracellular p24 molecule. Cells were surface stained with antibodies specific for CD40 (BD Biosciences, San Jose, Calif.) to target DC and intracellular stained with p24-specific antibodies (Coulter). Stained cells were fixed in 1% PFA, immediately acquired on a FACScalibur (Becton Dickinson) and analyzed with FlowJo software. In some experiments infected DCs were imaged, after immunofluorescence, by laser scanning confocal microscopy.

iDCs [2] = test: aNK-induced apoptosis of iDCs at NK:DC ratio 5:1 (7-AAD assay); type: cell-based, human
Description: (a) CD56^+ NK cells were purified from the blood of healthy donors. NK cells were maintained in culture with suboptimal concentrations of interleukin-2 (IL-2) (100 ng/ml) (rNK cells) or activated (aNK cells) by the addition PHA (10 μg/ml) and IL-2 (10 μg/ml) to cultures. […] Data represent the mean±sd of three independent experiments. […] In some cases, iDCs were cocultured with aNK cells at the NK:DC ratio of 5:1. […] Cell death was then quantified with the 7-AAD assay. […] (g) iDCs were cultured for 24 h either alone or with aNK cells (NK:DC ratio of 5:1), in the absence or presence of blocking anti-DR4 antibodies (250 ng/ml). The viability status of DCs was determined by flow cytometry with the 7-AAD assay. […]
FIGS. 11(a)-(b). […] Cell death was then quantified with the 7-AAD assay. […]
rNK or aNK were cocultured during 24 h with iDCs or mDCs at a ratio of 1:5 (2×105 NK+10×105 DC/1 ml), unless otherwise indicated. DC survival was determined with the 7-AAD assay, as described previously55. […]
Immature DCs (iDCs) were prepared from sorted monocytes from healthy donors, cultured for 6 days in the presence of IL-4 and GM-CSF. […] The influence of NK-DC interaction on DC's maturation and apoptosis was analyzed using multiparametric flow cytometry, combining 7-AAD staining with membrane and intracellular staining with mAbs specific for HLA-DR, DC-SIGN, CD83, CD86, DR4, mTRAIL, etc.

HIV-infected DCs = test: TRAIL-induced apoptosis of iDCs and HIV-infected DCs (7-AAD assay); type: cell-based, human; settings: 24 h with 1-1000 ng/ml rhs-TRAIL
Description: FIGS. 10(a)-(d). R5-HIV-infected DCs are resistant to killing by aNK cells, although TRAIL secretion persists in the presence of HIV-1 (a) iDCs were either infected with R5-HIV-1BaL (1 ng/ml of p24) for 24 h or uninfected, and after several washes, they were incubated with aNK cells at the ratios of 1:5 and 5:1. iDCs viability was assayed with the 7-AAD test by flow cytometry. Living cells are 7-AAA^−, apoptotic cells 7-AAD^+, and apoptotic debris are 7-AAD^−FSC^low. Dot plots represent one of at least three independent experiments. […] DCs were uninfected (iDCs), infected with R5-HIV-1 at 1 ng/ml of p24 (HIV-DCs) or stimulated with LPS for 48 h. Cells were then stained with CD86 and HLA-DR. Data represent one of at least three independent experiments. (c) TRAIL secretion is not affected by HIV infection of iDCs. 24 h cell-free culture supernatants of iDCs, HIV-infected DCs (10^6/ml), aNK cells-iDCs cocultures (ratio 5:1) and aNK cells-HIV-infected DCs cocultures (ratio 5:1) were tested for soluble TRAIL (sTRAIL) content by ELISA. Data represent the mean±sd of three independent experiments. […] Cell death was then quantified with the 7-AAD assay. The mean±sd of three independent experiments was presented.

Molecule: CC1(C)[C@@H](O[C@H]2O[C@H](C(=O)O)[C@@H](O)[C@H](O)[C@H]2O[C@@H]2O[C@H](C(=O)O)[C@@H](O)[C@H](O)[C@H]2O)CC[C@]2(C)[C@H]3C(=O)C=C4[C@@H]5C[C@@](C)(C(=O)O)CC[C@]5(C)CC[C@@]4(C)[C@]3(C)CC[C@@H]12 [glycyrrhizin, reference compound]
- proportions of mature DCs (CD86bright HLA-DRbright) (iDCs [1]): reduced the proportions of mature DCs (identified as CD86brightHLA-DRbright) to the baseline level observed without aNK cells
- HIV-1 production (p24 in supernatant) (R5-HIV-1Ba-L; infected DC cocultured with aNK cells): abrogated HIV-1 production
- HIV-1 production (p24 in supernatant) (R5-HIV-1Ba-L; infected DC cultured alone): abrogated HIV-1 production
- resistance of HIV-1-infected iDCs to aNK-induced apoptosis (inhibition assays) (iDCs [2]; HIV-1-infected iDCs, NK:DC ratio 5:1, AZT added at infection, inhibitors at coculture initiation): found dependent on HMGB1

Molecule: C/C=C/[C@H]1O[C@@](O)([C@@H](C)[C@H](O)[C@H](C)[C@H]2OC(=O)/C(OC)=C/C(C)=C/[C@@H](C)[C@@H](O)[C@@H](CC)[C@@H](O)[C@H](C)C/C(C)=C/C=C/[C@@H]2OC)C[C@@H](O[C@H]2C[C@@H](O)[C@H](OC(N)=O)[C@@H](C)O2)[C@@H]1C [Concanamycin A]
- NK-dependent iDCs apoptosis (iDCs [2]; uninfected iDCs, aNK cells, NK:DC ratio 5:1, 24 h): no effect

B1: rhs-TRAIL: recombinant human soluble TRAIL (protein, UniProt P50591 39-281, looked up)
extracellular domain: TNELKQMQDKYSKSGIACFLKEDDSYWDPNDEESMNSPCWQVKWQLRQLVRKMILRTSEETISTVQEKQQNISPLVRERGPQRVAAHITGTRGRSNTLSSPNSKNEKALGRKINSWESSRSGHSFLSNLHLRNGELVIHEKGFYYIYSQTYFRFQEEIKENTKNDKQMVQYIYKYTSYPDPILLMKSARNSCWSKDAEYGLYSIYQGGIFELKENDRIFVSVTNEHLIDMDHEASFFGAFLVG
modifications: extracellular domain
- cell death of HIV-1-infected DCs (HIV-infected DCs): still susceptible to TRAIL-induced apoptosis
